Experimental findings from patent US20230233500A1, “Gasdermin D (GSDMD) Succination for the Treatment of Inflammatory Disease” (University of Massachusetts, priority 2020, published 2023) are described below.

Where a name gives a salt, the structure may show the parent alone.

Experiment [1] has as its system LPS septic shock in WT mice. As to the kind of experiment: LPS septic shock model. In kind it is in vivo, mouse. On the procedure: FIGS. 1A-L. Fumarate inhibits pyroptosis. Bone marrow-derived macrophages (BMDMs) were treated as indicated and LDH, IL-1β or TNF-α measured by ELISA (A-C), GSDMD/β-actin by immunoblotting (D) or permeabilization of cells to SYTOX orange (E-F). GSDMD oligomerization in native and reduced cell lysates treated as above (G). Timecourse of permeabilization to SYTOX orange or GSDMD-N formation in cells treated as indicated (H-I). Survival rates of WT mice after 50 mg/kg of LPS (n−10) or LPS+fumarate (n=9) (J). Levels of IL-1β or TNF-α from serum of WT mice at 5 hours post-intraperitoneal injection with 5 mg/kg LPS (n=6) or control PBS (n=3) (K, L). A, B, C, I and are pooled from three independent experiments. D, E, F, G, H and I are representative from three independent experiments. J, K, L data points indicate individual mice. *, P<0.05, **, P<0.01; ***, P<0.001; ****, P<0.0001) (J, Mantel Cox survival analysis; A-C, K Two-way ANOVA). Error bars show means±SEM.
FIGS. 8A-B. Fumarate inhibits pyroptosis in vivo. (A-B) LC/MS Fumarate quantification in splenocytes (A) and IL-1 ELISA analysis (B) in serum from WT C57/BL6 mice administered FHIN2 (50 mg/kg) by IP injection followed by LPS (10 mg/kg) by IP injection for 5 hours. Data points indicative of individual mice. **, P<0.01 (Two-way ANOVA). Error bars show means±SEM.
Conditioned media or serum was collected as indicated and IL-1β or TNF-α, were quantified by sandwich ELISA (R&D Systems).
Mice aged 8-12 weeks were administered LPS 5 mg/kg by intraperitoneal injection. Serum was collected after 5 h for ELISA analysis. For survival studies, mice were administered LPS 50 mg/kg intraperitoneally and monitored every 12 h for up to 96 h.

The next experiment has as its system human THP1. Nature of the experiment: LPS-Nig induced cell death and LDH release in THP1 cells. Particulars: PMA-differentiated THP1, fumarate 25 μM; for LPS-Nig induced cell death: SYTOX Orange. In kind it is cell-based. On the procedure:
FIGS. 6A-G. Fumarate inhibits pyroptosis in Human cells. (A-B) Representative images (A) and kinetic data (B) of SYTOX Orange and Hoechst-stained PMA-differentiated THP1 cells treated with LPS for 2 hours, DMSO (vehicle) or fumarate (25 μM) for 1 hour and nigericin (10 μM) for 6 hours. (C) LDH release from (A). (D-E) Kinetic cell death data of SYTOX Orange and Hoechst stained (D) or LDH assay of conditioned medium from primary CD14+ positive monocytes treated with LPS for 2 hours DMSO (vehicle) or fumarate (25 μM) for 1 hour and nigericin (10 μM) for 6 hours. (F) LC/MS quantification of fumarate in WT BMDMs treated with LPS for 2 hours, FHIN1 for 1 hour and nigericin for 1 hour. (G) Representative images of WT primary BMDMs stained with SYTOX Orange and Hoechst following treatment with LPS for 2 hours, DMSO (vehicle) or fumarate (25 μM) or FHIN1 (25 μM) for 1 hour and nigericin for a timecourse of 6 hours. A, B, D, G are representative of 3 independent experiments. C, E, F are pooled data from 3 independent experiments. ***, P<0.001, ****, P<0.00001 (Students t-test). Error bars show mean±SD (B, D) or SEM (C, E). Human kidney cell line HEK293T was cultured in Dulbecco's modified Eagle's medium supplemented with 10% (v/v) fetal bovine serum, 100 U/ml penicillin and 100 µg/ml streptomycin. Human peripheral blood monocyte cell line, THP1 cells were cultured in RPMI-1640 medium supplemented with 10% (v/v) fetal bovine serum, 100 U/ml penicillin and 100 µg/ml streptomycin. For isolation of BMDMs, tibias and femurs were removed from wild type and GsdmD^−/− mice and bone marrow was flushed with complete DMEM-medium. Cells were plated in medium containing 20% (v/v) conditioned medium of L929 mouse fibroblasts cultured for 7 days at 37° C. in a humidified atmosphere of 5% C02. Medium was replaced every 3 days. Cells were plated, treated and incubated in phenol red free medium. Following treatment medium was collected and assessed for LDH release using the CytoTox96 non-radioactive cytotoxicity assay (Promega) as per manufacturer's instructions. […]
(In general: Release of lactate dehydrogenase indicates damage to the cell membrane.)

Consider `COC(=O)/C=C/C(=O)OC` [Fumarate, Dimethyl fumarate], for which, in experiment [1] (5 hours after ip LPS 5 mg/kg), the “serum IL-1β levels” value is given as “reduced” and the “serum TNF-α levels” value was “not”. Also, the survival result in experiment [1] (lethal dose LPS 50 mg/kg, single dose of fumarate) is “increased survival”. In the experiment on human THP1, the “LPS-Nig induced LDH release” value is recorded as “blocked” and the “LPS-Nig induced cell death” value is “blocked”. In addition, the “LPS-Nig induced cell death” value in the experiment on human THP1 (listed as fumarate) is “inhibited cell death”.
